Data on 19 compounds can be found in patent publication US9763943B2, “Trk-inhibiting compound” (ONO PHARMACEUTICAL CO., LTD., priority 2013, dated 2017).

The test has as its system sodium monoiodoacetate (MIA)-induced model rats. In words: Analgesic effect on sodium monoiodoacetate-induced model rats (right hind limb weight load ratio). The format is in vivo, rat.
The mark [1] stands for this setting: day 24, test substance oral twice a day over 10 days, 3 hours after last administration, experiment with tramadol as positive control (Table 7).
[2] abbreviates: day 24, test substance oral twice a day over 10 days, 3 hours after last administration, experiment with morphine as positive control (Table 8).

On to `Nc1ncc(Cl)cc1-c1ccc(Oc2ncc(NC(=O)Nc3cc(C(F)(F)F)ccc3-n3cccn3)cn2)cc1` [Example 7, 1-(2-(1H-pyrazol-1-yl)-5-(trifluoromethyl)phenyl)-3-(2-(4-(2-amino-5-chloropyridin-3-yl)phenoxy)pyrimidin-5-yl)urea], for which, under setting [1], the “Percent improvement (%)” value amounted to 61%.

As for `CS(=O)(=O)c1ccc(C(F)(F)F)cc1NC(=O)Nc1cnc(Oc2ccc(-c3cc(C(F)(F)F)cnc3N)cc2)nc1` [Example 15-98, 1-(2-{4-[2-amino-5-(trifluoromethyl)-3-pyridinyl]phenoxy}-5-pyrimidinyl)-3-[2-(methylsulfonyl)-5-(trifluoromethyl)phenyl]urea], under setting [2], the “Percent improvement (%)” value is reported as 57%.

Regarding `Cc1cn(-c2ccc(C(F)(F)F)cc2NC(=O)Nc2cnc(Oc3ccc(-c4cc(Cl)cnc4N)cc3)nc2)nn1` [Example 8-1, 1-(2-(4-(2-amino-5-chloropyridin-3-yl)phenoxy)pyrimidin-5-yl)-3-(2-(4-methyl-1H-1,2,3-triazol-1-yl)-5-(trifluoromethyl)phenyl)urea], the “Percent improvement (%)” value under setting [1] is 60%.

As for `Nc1ncc(Cl)cc1-c1ccc(Oc2ncc(NC(=O)Nc3cc(C(F)(F)F)ccc3-n3cc(Cl)cn3)cn2)cc1` [Example 15-63, 1-{2-[4-(2-amino-5-chloro-3-pyridinyl)phenoxy]-5-pyrimidinyl}-3-[2-(4-chloro-1H-pyrazol-1-yl)-5-(trifluoromethyl)phenyl]urea], the “Percent improvement (%)” value under setting [2] worked out at 53%.

Consider `Nc1ncc(Cl)cc1-c1ccc(Oc2ncc(NC(=O)Nc3ccc(C(F)(F)F)cc3C(F)(F)F)cn2)cc1` [Example 15-77, 1-{2-[4-(2-amino-5-chloro-3-pyridinyl)phenoxy]-5-pyrimidinyl}-3-[2,4-bis(trifluoromethyl)phenyl]urea], for which the “Percent improvement (%)” value under setting [2] was determined as 55%.

Take `CS(=O)(=O)c1ccc(C(F)(F)F)cc1NC(=O)Nc1cnc(Oc2ccc(-c3cc(Cl)cnc3N)cc2)nc1` [Example 15-104, 1-{2-[4-(2-amino-5-chloro-3-pyridinyl)phenoxy]-5-pyrimidinyl}-3-[2-(methylsulfonyl)-5-(trifluoromethyl)phenyl]urea]: the “Percent improvement (%)” value under setting [2] was found to be 54%.

With `CN(C)c1ccn2ncc(-c3ccc(Oc4ncc(NC(=O)Nc5cc(C(F)(F)F)ccc5-c5ccnn5C)cn4)cc3)c2n1` [Example 21-51, 1-(2-{4-[5-(dimethylamino)pyrazolo[1,5-a]pyrimidin-3-yl]phenoxy}-5-pyrimidinyl)-3-[2-(1-methyl-1H-pyrazol-5-yl)-5-(trifluoromethyl)phenyl]urea], the “Percent improvement (%)” value under setting [2] is 68%.

As to `O=C(Nc1cnc(Oc2ccc(-c3cnn4cccnc34)cc2)nc1)Nc1cc(C(F)(F)F)ccc1-c1cccnc1` [Example 21-13, 1-(2-(4-(pyrazolo[1,5-a]pyrimidin-3-yl)phenoxy)pyrimidin-5-yl)-3-(2-(pyridin-3-yl)-5-(trifluoromethyl)phenyl)urea], the “Percent improvement (%)” value under setting [1] was 66%.

Regarding `Cc1cccc(-c2ccc(C(F)(F)F)cc2NC(=O)Nc2cnc(Oc3ccc(-c4cnn5ccc(N(C)C)nc45)cc3)nc2)c1` [Example 21-73, 1-(2-{4-[5-(dimethylamino)pyrazolo[1,5-a]pyrimidin-3-yl]phenoxy}-5-pyrimidinyl)-3-[3′-methyl-4-(trifluoromethyl)-2-biphenylyl]urea], the “Percent improvement (%)” value under setting [2] amounted to 62%.

For the compound `COc1ccn2ncc(-c3ccc(Oc4ncc(NC(=O)Nc5cc(C(F)(F)F)ccc5-c5cccnc5)cn4)cc3)c2n1` [Example 21-9, 1-(2-(4-(5-methoxypyrazolo[1,5-a]pyrimidin-3-yl)phenoxy)pyrimidin-5-yl)-3-(2-(pyridin-3-yl)-5-(trifluoromethyl)phenyl)urea], the “Percent improvement (%)” value under setting [1] worked out at 64%.

Turning to `Nc1ncc(F)cc1-c1ccc(Oc2ncc(NC(=O)Nc3cc(C(F)(F)F)ccc3-n3ccnn3)cn2)cc1` [Example 14-5, 1-(2-(1H-1,2,3-triazol-1-yl)-5-(trifluoromethyl)phenyl)-3-(2-(4-(2-amino-5-fluoropyridin-3-yl)phenoxy)pyrimidin-5-yl)urea], the “Percent improvement (%)” value under setting [1] is 47%.

In the case of `Nc1ncc(F)cc1-c1ccc(Oc2ncc(NC(=O)Nc3cc(C(F)(F)F)ccc3-c3cccnc3)cn2)cc1` [Example 14-6, 1-(2-(4-(2-amino-5-fluoropyridin-3-yl)phenoxy)pyrimidin-5-yl)-3-(2-(pyridin-3-yl)-5-(trifluoromethyl)phenyl)urea], the “Percent improvement (%)” value under setting [2] was determined as 53%.

With `Nc1ncc(C(F)(F)F)cc1-c1ccc(Oc2ncc(NC(=O)Nc3cc(C(F)(F)F)ccc3-n3cc(Cl)cn3)cn2)cc1` [Example 15-87, 1-(2-{4-[2-amino-5-(trifluoromethyl)-3-pyridinyl]phenoxy}-5-pyrimidinyl)-3-[2-(4-chloro-1H-pyrazol-1-yl)-5-(trifluoromethyl)phenyl]urea], under setting [2], the “Percent improvement (%)” value was 57%.

Regarding `Nc1ncc(Cl)cc1-c1ccc(Oc2ncc(NC(=O)Nc3ccc(C(F)(F)F)cc3Cl)cn2)cc1` [Example 15-6, 1-(2-(4-(2-amino-5-chloropyridin-3-yl)phenoxy)pyrimidin-5-yl)-3-(2-chloro-4-(trifluoromethyl)phenyl)urea], the “Percent improvement (%)” value under setting [1] was found to be 51%.

For `CN(C)c1ccn2ncc(-c3ccc(Oc4ncc(NC(=O)Nc5cc(C(F)(F)F)ccc5-c5cccnc5)cn4)cc3)c2n1` [Example 21-37, 1-(2-{4-[5-(dimethylamino)pyrazolo[1,5-a]pyrimidin-3-yl]phenoxy}-5-pyrimidinyl)-3-[2-(3-pyridinyl)-5-(trifluoromethyl)phenyl]urea], under setting [2], the “Percent improvement (%)” value is 67%.

Consider `Nc1ncc(Cl)cc1-c1ccc(Oc2ncc(NC(=O)Nc3cc(C(F)(F)F)ccc3-c3ccccc3)cn2)cc1` [Example 15-55, 1-{2-[4-(2-amino-5-chloro-3-pyridinyl)phenoxy]-5-pyrimidinyl}-3-[4-(trifluoromethyl)-2-biphenylyl]urea], for which the “Percent improvement (%)” value under setting [2] was determined as 62%.

Consider `COc1cccc(C2(O)CCCCC2CN(C)C)c1` (stereo not shown) [Tramadol, reference compound], for which the “Percent improvement (%)” value (day 24, positive control drug, 10 mg/kg subcutaneous, 1 hour after administration (Table 7)) amounted to 43%.

In the case of `Nc1ncc(C(F)(F)F)cc1-c1ccc(Oc2ncc(NC(=O)Nc3cc(C(F)(F)F)ccc3-n3ccc(C(F)(F)F)n3)cn2)cc1` [Example 15-52, 1-(2-{4-[2-amino-5-(trifluoromethyl)-3-pyridinyl]phenoxy}-5-pyrimidinyl)-3-{5-(trifluoromethyl)-2-[3-(trifluoromethyl)-1H-pyrazol-1-yl]phenyl}urea], under setting [2], the “Percent improvement (%)” value is 60%.

In the case of `CN(C)c1ccn2ncc(-c3ccc(Oc4ncc(NC(=O)Nc5cc(C(F)(F)F)ccc5-c5ccccc5)cn4)cc3)c2n1` [Example 21-70, 1-(2-{4-[5-(dimethylamino)pyrazolo[1,5-a]pyrimidin-3-yl]phenoxy}-5-pyrimidinyl)-3-[4-(trifluoromethyl)-2-biphenylyl]urea], the “Percent improvement (%)” value under setting [2] came out at 61%.
